Calls of active or inactive are those of the source.
Key:
[1] = target: T1, Nuclear receptor subfamily 0 group B member 1 (Homo sapiens, UniProt P51843); format: functional, cell-based;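 note: HEK293T cells transfected with SF-1 and DAX-1 plus StAR promoter luciferase reporter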
T1 sequence (P51843 whole entry): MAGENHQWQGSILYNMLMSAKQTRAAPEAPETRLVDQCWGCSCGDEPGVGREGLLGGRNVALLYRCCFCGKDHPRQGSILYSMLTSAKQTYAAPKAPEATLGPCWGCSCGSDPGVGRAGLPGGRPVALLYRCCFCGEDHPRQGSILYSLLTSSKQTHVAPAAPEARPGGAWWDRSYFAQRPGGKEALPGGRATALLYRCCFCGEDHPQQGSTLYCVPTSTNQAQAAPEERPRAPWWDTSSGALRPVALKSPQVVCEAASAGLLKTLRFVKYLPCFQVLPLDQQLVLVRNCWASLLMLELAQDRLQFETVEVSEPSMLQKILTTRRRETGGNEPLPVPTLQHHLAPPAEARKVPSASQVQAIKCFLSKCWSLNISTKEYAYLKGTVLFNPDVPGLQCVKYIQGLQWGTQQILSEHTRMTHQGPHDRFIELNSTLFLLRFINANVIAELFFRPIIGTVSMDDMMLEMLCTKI

[2] = blockers of bursicon-stimulated LGR2 cAMP reporter – cell-based, HEK293, CRE-luciferase reporter, cherry pick, set 2, dose response (AID 743343); format: functional;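 note: transfected cells were stimulated with diluted bursicon conditioned medium after compound addition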
cells [3] = format: functional, cell-based
[4] = blockade of melanocortin 4 receptor signaling – cell-based, plate reader, cherry pick, counter-screen for LGR2 antagonist project, dose response (AID 743444); format: functional;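 note: transfected HEK 293 cells stimulated with alpha-MSH peptide; potency of inhibitors of the alpha-MSH evoked signal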
[5] = A549 cell cytotoxicity, dose response, cytotoxicity control, plate reader, cherry-pick, antagonist series (AID 743412); format: functional, cell-based
[6] = toxicity toward HepG2 liver cells – cell-based, plate reader, cherry-pick, antagonist series, cytotoxicity control, dose response (AID 743416); format: functional
[7] = target: Sphingosine 1-phosphate receptor 2 (Homo sapiens, UniProt O95136); assay: Dose Response Cell Based Assay for Agonists of the S1P2 Receptor. [Related pubchem assays: 729, 736, 843 ]; format: functional
Sequence of Sphingosine 1-phosphate receptor 2 (O95136 whole entry): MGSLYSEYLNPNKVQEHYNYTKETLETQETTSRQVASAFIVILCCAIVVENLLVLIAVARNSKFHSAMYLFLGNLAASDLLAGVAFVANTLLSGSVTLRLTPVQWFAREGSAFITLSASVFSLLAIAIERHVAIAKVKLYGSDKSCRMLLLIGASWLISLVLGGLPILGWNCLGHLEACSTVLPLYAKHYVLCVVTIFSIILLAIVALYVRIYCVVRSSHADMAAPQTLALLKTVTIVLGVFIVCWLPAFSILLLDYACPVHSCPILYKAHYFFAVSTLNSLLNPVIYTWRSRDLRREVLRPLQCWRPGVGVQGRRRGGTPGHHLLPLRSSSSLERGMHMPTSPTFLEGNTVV

[8] = target: Fructose-bisphosphate aldolase (Mycobacterium tuberculosis, UniProt P9WQA3); assay: Fluorescence-based biochemical high throughput dose response assay for inhibitors of the fructose-bisphosphate aldolase (FBA) of M. tuberculosis.; format: functional
Sequence of Fructose-bisphosphate aldolase (P9WQA3 whole entry): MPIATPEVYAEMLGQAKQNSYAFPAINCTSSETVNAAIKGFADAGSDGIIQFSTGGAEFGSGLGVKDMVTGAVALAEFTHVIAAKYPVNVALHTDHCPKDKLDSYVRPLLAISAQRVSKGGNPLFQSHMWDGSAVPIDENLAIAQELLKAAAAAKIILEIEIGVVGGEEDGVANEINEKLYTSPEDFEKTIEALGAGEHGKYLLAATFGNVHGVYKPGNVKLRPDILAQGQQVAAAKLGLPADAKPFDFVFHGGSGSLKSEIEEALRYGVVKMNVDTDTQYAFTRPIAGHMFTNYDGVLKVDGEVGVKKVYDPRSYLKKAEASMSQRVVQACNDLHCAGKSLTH

[9] = viability loss in human Jurkat cells – cell-based, luminescence, cytotoxicity control for P. falciparum gametocyte viability project, dose response (AID 1117277); format: functional;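 note: potency reflects loss of cellular ATP meaning fewer viable cells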
[10] = viability inhibitors of stage V gametocytes – luminescence, dose response (AID 1117278); format: functional, cell-based;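 note: gametocytes exposed to compound for 24 hours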
cells [11] = format: functional, cell-based; remark: listed apart in the source
cells [12] = format: functional, cell-based; remark: listed apart in the source
[13] = target: Mitogen-activated protein kinase 10 (Homo sapiens, UniProt P53779); assay: Dose response biochemical screening assay for inhibitors of c-Jun N-Terminal Kinase 3 (JNK3). [Related pubchem assays: 746 ]
Sequence of Mitogen-activated protein kinase 10 (P53779 whole entry): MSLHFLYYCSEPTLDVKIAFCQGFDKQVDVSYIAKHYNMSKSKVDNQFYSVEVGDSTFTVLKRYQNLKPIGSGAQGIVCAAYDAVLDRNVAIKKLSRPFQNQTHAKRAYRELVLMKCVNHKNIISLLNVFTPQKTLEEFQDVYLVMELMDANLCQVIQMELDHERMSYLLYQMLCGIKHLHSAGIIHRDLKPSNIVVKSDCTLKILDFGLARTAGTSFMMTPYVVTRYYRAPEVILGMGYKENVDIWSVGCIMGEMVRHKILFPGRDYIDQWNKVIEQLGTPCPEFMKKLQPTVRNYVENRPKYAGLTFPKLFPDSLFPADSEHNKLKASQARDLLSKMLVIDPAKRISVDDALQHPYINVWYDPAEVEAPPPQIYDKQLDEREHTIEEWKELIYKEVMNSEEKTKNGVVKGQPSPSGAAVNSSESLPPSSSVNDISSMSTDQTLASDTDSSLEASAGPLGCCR

[14] = microbe, parasite or virus in culture; format: functional; conditions: Mycobacterium tuberculosis
[15] = IC50 of Artemis nuclease activity blockers – biochemical, fluorescence intensity, dose response (AID 720701); format: functional;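 note: Artemis endonuclease enzyme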
[16] = target: T2, Runt-related transcription factor 1/Core-binding factor subunit beta (Homo sapiens, UniProt Q01196+Q13951); assay: disruptors of Runt domain/CBFb-SMMHC interaction – biochemical, FRET, Cerulean-Runt, Venus-CBFb-SMMHC, uHTS, […] (AID 1434); format: protein assay
T2 sequence (Q01196 whole entry, the tested form may be a part): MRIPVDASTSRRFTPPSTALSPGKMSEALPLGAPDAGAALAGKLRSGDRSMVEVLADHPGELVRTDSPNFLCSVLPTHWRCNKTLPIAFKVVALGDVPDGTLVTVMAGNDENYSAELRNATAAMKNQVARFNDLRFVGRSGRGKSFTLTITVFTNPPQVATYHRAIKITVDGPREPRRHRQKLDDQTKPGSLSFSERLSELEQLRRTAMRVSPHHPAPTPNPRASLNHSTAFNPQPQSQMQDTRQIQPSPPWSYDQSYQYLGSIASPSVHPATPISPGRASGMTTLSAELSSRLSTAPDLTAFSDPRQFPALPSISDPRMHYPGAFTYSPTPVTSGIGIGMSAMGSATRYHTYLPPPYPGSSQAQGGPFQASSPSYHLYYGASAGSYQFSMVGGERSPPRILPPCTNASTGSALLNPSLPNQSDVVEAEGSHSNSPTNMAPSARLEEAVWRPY
T2 sequence (Q13951 whole entry, the tested form may be a part): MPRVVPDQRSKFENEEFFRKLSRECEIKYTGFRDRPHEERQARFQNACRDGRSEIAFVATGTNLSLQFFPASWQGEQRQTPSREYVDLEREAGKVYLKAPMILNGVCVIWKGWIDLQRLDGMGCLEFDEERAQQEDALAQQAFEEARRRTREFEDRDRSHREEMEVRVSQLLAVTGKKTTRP

Protein skinhead-1 = target: T3, Protein skinhead-1 (Caenorhabditis elegans, UniProt P34707); format: functional
T3 sequence (P34707 whole entry): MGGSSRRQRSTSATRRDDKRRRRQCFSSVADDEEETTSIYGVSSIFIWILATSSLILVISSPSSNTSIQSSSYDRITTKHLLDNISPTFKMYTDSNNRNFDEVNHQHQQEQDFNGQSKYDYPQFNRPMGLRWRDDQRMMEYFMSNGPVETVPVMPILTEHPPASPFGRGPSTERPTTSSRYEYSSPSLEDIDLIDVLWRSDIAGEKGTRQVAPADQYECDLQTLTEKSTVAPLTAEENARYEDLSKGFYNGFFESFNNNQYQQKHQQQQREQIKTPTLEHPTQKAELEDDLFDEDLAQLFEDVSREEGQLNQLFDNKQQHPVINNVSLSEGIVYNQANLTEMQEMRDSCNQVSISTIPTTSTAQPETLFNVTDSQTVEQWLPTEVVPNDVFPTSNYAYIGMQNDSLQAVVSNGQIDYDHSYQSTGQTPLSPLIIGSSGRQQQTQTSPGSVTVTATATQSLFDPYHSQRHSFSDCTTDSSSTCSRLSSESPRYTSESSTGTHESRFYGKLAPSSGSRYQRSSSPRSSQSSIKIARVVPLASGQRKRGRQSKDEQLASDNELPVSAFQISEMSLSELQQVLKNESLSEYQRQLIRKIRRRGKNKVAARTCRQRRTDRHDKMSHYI

[17] = target: T2, Runt-related transcription factor 1/Core-binding factor subunit beta; assay: Runt domain/CBFb-SMMHC interaction disruptors – biochemical, TR-FRET (AID 1438); format: protein assay
[18] = potency of ADAM10 substrate cleavage blockers – biochemical, QFRET, dose response (AID 743254);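 note: ADAM10 enzyme with the DM2 quenched FRET peptide as substrate; EDANS fluorescence gain as the protease cuts the substrate; inhibitor potency against ADAM10 proteolytic activity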
[19] = Luminescence Cell-Based Dose Retest to Confirm Inhibitors of Cancer Stem Cells. [Related pubchem assays (depositor defined):AID2717, AID2721]; format: functional; conditions: Homo sapiens
[20] = reduction of Shn3 3'UTR-driven luciferase in osteoblasts – cell-based, Clone20 osteoblasts, firefly luciferase, cherry-picked, dose response (AID 624132); format: functional;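 note: firefly luciferase luminescence from reporter carrying the Shn3 3'UTR in osteoblasts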
[21] = loss of viability in HepG2 cells – cell-based, CellTiter-Glo, cherry-picked, cytotoxicity control for Shn3 inhibitor project, dose response (AID 624134); format: functional
[22] = target: Disintegrin and metalloproteinase domain-containing protein 17 (Homo sapiens, UniProt P78536); assay: inhibition of ADAM17 substrate cleavage – biochemical, quenched FRET substrate, counter-screen for ADAM10 exosite inhibitor project, dose response (AID 743253)
Sequence of Disintegrin and metalloproteinase domain-containing protein 17 (P78536 whole entry, the tested form may be a part): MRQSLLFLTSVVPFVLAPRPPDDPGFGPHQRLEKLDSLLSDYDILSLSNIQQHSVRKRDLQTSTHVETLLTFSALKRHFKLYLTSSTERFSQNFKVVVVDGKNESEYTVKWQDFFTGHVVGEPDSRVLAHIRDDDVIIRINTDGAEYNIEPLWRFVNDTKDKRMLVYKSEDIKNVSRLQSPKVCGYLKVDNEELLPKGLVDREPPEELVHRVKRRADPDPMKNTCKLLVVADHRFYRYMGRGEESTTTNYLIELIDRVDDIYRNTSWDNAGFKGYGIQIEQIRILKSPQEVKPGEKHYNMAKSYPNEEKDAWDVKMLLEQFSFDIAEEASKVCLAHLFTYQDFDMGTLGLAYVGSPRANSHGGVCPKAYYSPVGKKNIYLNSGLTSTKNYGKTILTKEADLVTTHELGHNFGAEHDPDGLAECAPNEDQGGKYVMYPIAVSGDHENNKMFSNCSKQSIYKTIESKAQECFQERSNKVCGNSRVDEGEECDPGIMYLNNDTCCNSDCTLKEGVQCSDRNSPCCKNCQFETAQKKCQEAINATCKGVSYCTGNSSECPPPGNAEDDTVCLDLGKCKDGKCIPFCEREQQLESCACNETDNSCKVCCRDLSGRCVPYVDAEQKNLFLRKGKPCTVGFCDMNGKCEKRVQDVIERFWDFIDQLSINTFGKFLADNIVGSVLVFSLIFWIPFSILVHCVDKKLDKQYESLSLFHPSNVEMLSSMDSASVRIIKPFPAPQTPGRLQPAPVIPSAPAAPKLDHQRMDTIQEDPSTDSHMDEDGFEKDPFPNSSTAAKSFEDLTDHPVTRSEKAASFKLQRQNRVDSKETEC

[23] = target: Tyrosyl-DNA phosphodiesterase 2 (Homo sapiens, UniProt O95551); assay: potency against TDP2 phosphodiesterase activity – biochemical, epi absorbance, IC50, dose response (AID 743297)
Sequence of Tyrosyl-DNA phosphodiesterase 2 (O95551 whole entry): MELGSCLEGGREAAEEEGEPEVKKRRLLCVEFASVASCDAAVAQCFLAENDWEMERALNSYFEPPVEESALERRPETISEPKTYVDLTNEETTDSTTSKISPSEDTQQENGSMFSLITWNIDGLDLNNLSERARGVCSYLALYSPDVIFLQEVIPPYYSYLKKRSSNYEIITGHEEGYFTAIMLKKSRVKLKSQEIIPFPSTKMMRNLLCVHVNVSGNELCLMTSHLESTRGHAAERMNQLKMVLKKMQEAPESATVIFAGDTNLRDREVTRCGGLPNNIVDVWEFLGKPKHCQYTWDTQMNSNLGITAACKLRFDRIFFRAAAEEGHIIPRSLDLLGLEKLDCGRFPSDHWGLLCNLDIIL

[24] = HGIII-sPLA2 enzyme inhibition potency – biochemical, QFRET, IC50, dose response (AID 743457);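 note: green fluorescence rise as the enzyme cleaves BODIPY PC-A2 in liposomes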
[25] = target: T4, Rac GTPase-activating protein 1 (Homo sapiens, UniProt Q9H0H5); assay: blockers of MgcRacGAP-driven Rac1 GTP hydrolysis – biochemical, ADP Hunter fluorescence, primary and confirmatory, confirmation (AID 624330); format: functional
T4 sequence (Q9H0H5 whole entry): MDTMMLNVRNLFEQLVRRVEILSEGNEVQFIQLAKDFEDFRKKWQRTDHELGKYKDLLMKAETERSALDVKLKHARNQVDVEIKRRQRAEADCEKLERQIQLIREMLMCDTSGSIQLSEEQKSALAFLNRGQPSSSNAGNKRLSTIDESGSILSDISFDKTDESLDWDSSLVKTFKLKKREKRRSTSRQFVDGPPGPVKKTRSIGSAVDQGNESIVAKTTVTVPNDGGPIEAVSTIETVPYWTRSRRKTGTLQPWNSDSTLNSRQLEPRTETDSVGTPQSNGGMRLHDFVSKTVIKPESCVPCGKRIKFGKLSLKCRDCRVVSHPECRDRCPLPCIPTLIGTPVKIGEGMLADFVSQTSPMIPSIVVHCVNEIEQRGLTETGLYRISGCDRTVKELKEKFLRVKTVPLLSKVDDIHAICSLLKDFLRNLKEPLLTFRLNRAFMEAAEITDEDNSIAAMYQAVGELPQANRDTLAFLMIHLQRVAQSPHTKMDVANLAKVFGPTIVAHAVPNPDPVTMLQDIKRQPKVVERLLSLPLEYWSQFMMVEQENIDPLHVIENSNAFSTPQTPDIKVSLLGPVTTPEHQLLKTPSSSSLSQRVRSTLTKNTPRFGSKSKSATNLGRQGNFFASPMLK

Fatty acid synthase [26] = target: T5, Fatty acid synthase (Homo sapiens, UniProt P49327); assay: inhibition of human FAS-TE enzyme activity – biochemical, kinetic fluorescence intensity, dose response (AID 624326); format: functional;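 note: rate of fluorescence rise from hydrolysis of a fluorogenic O-methyl fluorescein ester substrate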
Fatty acid synthase [27] = target: T5, Fatty acid synthase; assay: inhibition of human FAS-TE enzyme activity – biochemical, endpoint fluorescence intensity, uHTS hits, dose response (AID 624327); format: functional;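 note: fluorescence from hydrolysis of an O-methyl fluorescein acyl ester substrate by the enzyme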
Nonstructural protein 1 = Nonstructural protein 1 (Influenza A virus, UniProt Q194T2); format: functional, Influenza A virus (A/California/07/2009(H1N1))
Sequence of Nonstructural protein 1 (Q194T2 whole entry): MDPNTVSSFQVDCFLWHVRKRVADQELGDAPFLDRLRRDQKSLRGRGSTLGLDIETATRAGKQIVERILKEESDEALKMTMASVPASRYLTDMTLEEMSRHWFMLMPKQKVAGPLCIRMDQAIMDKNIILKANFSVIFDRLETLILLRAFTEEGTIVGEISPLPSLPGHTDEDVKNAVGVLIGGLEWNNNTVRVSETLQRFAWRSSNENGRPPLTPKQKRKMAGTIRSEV

[28] = viability loss in HeLa cells – cytotoxicity control for MgcRacGAP inhibitor project, dose response (AID 624300); format: functional
H9c2 = assay: cells; format: functional, cell-based; conditions: Rattus norvegicus, H9c2, Myocardium;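 note: confirmatory concentration-response retest of ultra-high-throughput screening hits for modulation of myocardial damage; cell death induced by hydrogen peroxide oxidative stress; compound pretreatment for 60 min then peroxide exposure for 2 h; potency is for protecting the cells against peroxide damage rather than for killing them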
[29] = IGROV1 cell killing – plate reader, dry powder samples, PAX8 inhibitor project, dose response (AID 743043); format: functional, cell-based; conditions: IGROV-1
Paired box protein Pax-8 = Paired box protein Pax-8 (Homo sapiens, UniProt Q06710); assay: PAX8 transcriptional activity inhibition in RMG-I – RMG-I cells, luciferase, cherry-pick, dose response (AID 687027); format: functional, cell-based;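 note: luciferase reporter driven by Pax8 target thyroperoxidase promoter measured by SteadyGlo luminescence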
Sequence of Paired box protein Pax-8 (Q06710 whole entry): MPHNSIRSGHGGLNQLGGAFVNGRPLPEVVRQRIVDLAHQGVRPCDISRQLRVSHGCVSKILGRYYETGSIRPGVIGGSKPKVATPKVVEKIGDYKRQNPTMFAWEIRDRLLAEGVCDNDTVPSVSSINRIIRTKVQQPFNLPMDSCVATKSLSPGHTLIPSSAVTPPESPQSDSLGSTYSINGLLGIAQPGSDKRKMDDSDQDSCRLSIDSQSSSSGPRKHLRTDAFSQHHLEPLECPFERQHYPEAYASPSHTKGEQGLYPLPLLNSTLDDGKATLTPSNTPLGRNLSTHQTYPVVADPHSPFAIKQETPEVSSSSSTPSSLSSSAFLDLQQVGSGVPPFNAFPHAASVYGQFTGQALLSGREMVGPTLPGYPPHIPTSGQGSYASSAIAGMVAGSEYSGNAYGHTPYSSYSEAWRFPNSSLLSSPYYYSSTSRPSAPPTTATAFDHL

[30] = OVCAR8 cell viability loss – plate reader, dry powder samples, PAX8 project, dose response (AID 743197); format: functional, cell-based; conditions: OVCAR-8
[31] = OVCAR-3 cell viability loss – plate reader, dry powder samples, PAX8 inhibitor project, dose response (AID 743044); format: functional, cell-based
[32] = target: E3 ubiquitin-protein ligase Mdm2 (Homo sapiens, UniProt Q00987); assay: MDM2-luc reporter signal enhancers, multi-concentration potency testing, MDM2 ubiquitin-protein ligase inhibitor program, whole-cell format, luminescence detection, 384-well microplate (AID 1394); format: functional;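 note: MDM2 E3 inhibitors raise luminescence so EC50 is for signal enhancement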
Sequence of E3 ubiquitin-protein ligase Mdm2 (Q00987 whole entry): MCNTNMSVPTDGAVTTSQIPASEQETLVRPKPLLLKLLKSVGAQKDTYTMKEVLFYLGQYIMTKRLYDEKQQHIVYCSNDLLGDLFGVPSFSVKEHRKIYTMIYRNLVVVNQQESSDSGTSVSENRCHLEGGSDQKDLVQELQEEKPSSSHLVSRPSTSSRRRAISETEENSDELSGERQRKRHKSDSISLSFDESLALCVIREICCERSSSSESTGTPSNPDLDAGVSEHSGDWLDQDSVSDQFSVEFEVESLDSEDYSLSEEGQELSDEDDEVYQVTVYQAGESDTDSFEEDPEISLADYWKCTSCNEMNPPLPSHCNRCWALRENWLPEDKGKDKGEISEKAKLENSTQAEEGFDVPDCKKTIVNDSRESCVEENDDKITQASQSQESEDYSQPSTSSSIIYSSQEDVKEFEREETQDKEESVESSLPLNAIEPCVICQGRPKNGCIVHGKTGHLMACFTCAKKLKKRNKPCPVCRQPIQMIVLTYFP

Structure (SMILES): CN(C)c1ccc(NC(=O)c2cnsn2)cc1
- IC50 [1]: > 2.5 µM (active)
- AC50 [2]: 4.26 µM (active)
- IC50 (cells [3]): > 67.5 µM (inactive)
- AC50 [4]: 6.9 µM (active)
- AC50 [5]: > 52 µM (inactive)
- AC50 [6]: > 52 µM (inactive)

Structure (SMILES): O=S(=O)(Cc1ccc(Cl)cc1)NCC1CCCO1 (centres undefined)
- EC50 [7]: > 50 µM (not active)

Structure (SMILES): O=C(Nc1nnc(-c2ccncc2)s1)C1CCCO1 (centres undefined)
- IC50 [8]: 1.09 µM (active)

Structure (SMILES): Cc1ccc(CNC(=O)C2CCN(S(=O)(=O)N3CCCCC3)CC2)cc1
- IC50 [9]: > 83.4 µM (inactive)
- IC50 [10]: > 109 µM (inactive)

Structure (SMILES): CCOC(=O)C1(C)NC(c2ccc(OC)cc2OC)C2C(=O)N(CC)C(=O)C21 (centres undefined)
- EC50 (cells [11]): > 350 µM (not active)
- IC50 [9]: > 83.3 µM (inactive)
- EC50 (cells [12]): > 350 µM (not active)
- IC50 [10]: > 109 µM (inactive)

Structure (SMILES): COc1ccc(NC(=O)CCCCn2c(=O)[nH]c3ccccc3c2=O)cc1
- IC50 [13]: 55.1 µM (not active)

Structure (SMILES): COc1cc(NC(=O)c2ccc(COc3ccccc3Br)o2)cc(OC)c1OC
- CC50 [14]: > 40 µM (active)
- IC50 [13]: 33 µM (not active)

Structure (SMILES): N=c1c(C(=O)NCc2ccccc2)cc2c(=O)n3ccccc3nc2n1Cc1ccco1
- IC50 [15]: > 20 µM (inactive)
- IC50 [16]: 2.34 µM (active)
- IC50 (Protein skinhead-1): > 100 µM (inactive)
- IC50 [17]: 36.6 µM (active)

Structure (SMILES): COc1cccc(CNC(=O)CN(c2cc(C)cc(C)c2)S(=O)(=O)c2c(C)noc2C)c1
- EC50 [7]: > 50 µM (not active)

Structure (SMILES): C[C@@H]1CN([C@@H](C)CO)C(=O)c2cc(NC(=O)Nc3ccc(F)cc3)ccc2O[C@@H]1CN(C)Cc1ccc(Oc2ccccc2)cc1
- IC50 [18]: > 2.58 µM (active)
- AC50 [19]: 2.95 µM (active)
- AC50 [20]: 9.38 µM (active)
- AC50 [21]: 18.7 µM (active)
- IC50 [22]: > 69.5 µM (inactive)

Structure (SMILES): CCOC(=O)c1cc2c(=Cc3ccc(N(C)C)cc3)c3ccccc3n2[n+]1C
- IC50 [23]: > 128 µM (inactive)
- IC50 [24]: 36.1 µM (inactive)
- IC50 [25]: 42.5 µM (active)
- IC50 (Fatty acid synthase [26]): 8.42 µM (active)
- IC50 (Fatty acid synthase [27]): 12.9 µM (active)
- IC50 (Nonstructural protein 1): 12 µM (active)
- CC50 [28]: 100 µM (active)

Structure (SMILES): CCCCCCn1cnc2c(c1=O)c1nc3ccccc3nc1n2/N=C/c1ccco1
- IC50 [15]: > 20 µM (inactive)
- IC50 (H9c2): 19.1 µM (active)

Structure (SMILES): CN1CCN(C(=O)C2Cc3c(-c4ccc5c(c4)OCO5)ccnc3O2)CC1 (centres undefined)
- IC50 [8]: 1.73 µM (active)

Structure (SMILES): COc1ccc(S(=O)(=O)Nc2ccc3c(c2)C(=O)N([C@H](C)CO)C[C@@H](C)[C@H](CN(C)S(=O)(=O)c2ccc(Cl)cc2)OCCCC[C@H](C)O3)cc1
- AC50 [29]: 34.6 µM (active)
- AC50 (Paired box protein Pax-8): 3.99 µM (active)
- AC50 [30]: > 70 µM (inactive)
- AC50 [31]: 33.5 µM (active)

Structure (SMILES): C[C@H]1CCCCO[C@@H](CN(C)Cc2ccccc2)[C@@H](C)CN([C@@H](C)CO)C(=O)c2cc(NC(=O)Nc3ccc(C(F)(F)F)cc3)ccc2O1
- AC50 [29]: 48.1 µM (active)
- AC50 (Paired box protein Pax-8): 11.6 µM (active)
- AC50 [30]: 42 µM (active)
- AC50 [31]: 60.4 µM (active)

Structure (SMILES): CCOc1ccc(-n2c(SCC(=O)Nc3ccc(S(=O)(=O)Nc4nccs4)cc3)nnc2-c2ccc(C(C)(C)C)cc2)cc1
- IC50 [18]: 9.71 µM (active)
- IC50 [22]: > 69.5 µM (inactive)

Structure (SMILES): COc1ccc(OCC(=O)N/N=C(\C)CC(=O)Nc2cccc([N+](=O)[O-])c2)cc1
- EC50 [32]: 15.7 µM (not active)

Structure (SMILES): O=C1CN(c2cc(Cl)cc(Cl)c2)C(=O)CN1/N=C/c1cccnc1
- EC50 [32]: 0.01 µM (not active)
